Test results reported in patent US20230002393A1, “CDK KINASE INHIBITOR” (BEIJING BENICALL BIOTECH CO., LTD., priority 2019, published 2023).

Tests used:
[1] = target: T1, CDK6/CyclinD1 (Homo sapiens, UniProt Q00534); assay: In vitro cell-free CDK6/CyclinD1 kinase activity assay (TR-FRET); format: biochemical; details: ATP at Km
T1 construct: purchased Carna 04-114
Method: It should be noted that the assay can also be conducted by a similar method. The assay steps in this Test Example are as follows:
The CDK6/CyclinD1 kinase activity was determined using a time-resolved fluorescence resonance energy transfer (TR-FRET) method. Measurements were performed in a reaction volume of 20 μL using 384-well assay plates. […] The reaction was stopped by adding a mixture of a peptide antibody (trade name: Cisbio, product No. 64CUSKAY) and Sa-XL665 (trade name: Cisbio, product No. 610SAXLB) diluted in HTRF KinEASE detection buffer (trade name: Cisbio, product No. 62SDBRDF, containing EDTA). After the mixture was incubated for 1 hour at room temperature, the plate was read. The TR-FRET signal was measured on a multimode plate reader (EnVision™, a multi-function microplate detector, PerkinElmer) at an excitation wavelength (λEx) of 330 nm and detection wavelengths (λEm) of 615 and 665 nm. The activity was determined by the ratio of fluorescence at 665 nm to that at 615 nm. For each compound, the enzyme activities of different concentrations of the compound were measured to determine IC50. The negative control contained no inhibitor. Two no-enzyme controls were used to determine baseline fluorescence levels. IC50 was obtained by fitting using the GraphPad 6.02 software.
8-10 concentrations were prepared for each compound, and formulated in DMSO. The stock concentration was 200× the working concentration. For example, if the working concentration was 100 nM, the corresponding concentration of the formulated stock solution was 20 μM.
In the analysis of in vitro inhibitory activity on CDK kinase, the IC50 value of each of the Example compounds and Reference Example compounds was determined.

[2] = test system: MCF-7 cells; assay: Cell viability assay, MCF-7 cells (CellTiter-Glo, 168 h); format: cell-based; details: Homo sapiens, MCF7
Method: An in vitro cell viability assay was conducted using some Example compounds following the steps below:
1. After recovery, MCF-7 cells (obtained from the Shanghai Cell Bank of the Chinese Academy of Sciences) were cultured at 37° C., 5% CO2, and 95% humidity.
2. 8 compound solutions at different concentrations were prepared for each Example compound. 50 μL of the compound solution at each concentration was added to a 96-well black plate.
3. The cell concentration was adjusted to about 30,000 cells/mL. 100 μL of the cell suspension was added to the 96-well plate, and mixed well to a final cell density of about 3,000 cells/well.
4. The 96-well plate was incubated at 37° C., 5% CO2, and 95% humidity for 168 h, i.e., 7 days.
5. The cell survival rate was measured by the method of CellTiter-Glo® Luminescent Cell Viability Assay (Promega, Cat #G7572). The fluorescence data were read on a microplate reader (EnVision™, a multi-function microplate detector, PerkinElmer).
6. The obtained fluorescence data were analyzed using the GraphPad Prism software. The cell survival rate was calculated for each Example compound at each concentration, and the IC50 interval of each Example compound was determined.

T1 sequence (Q00534 whole entry): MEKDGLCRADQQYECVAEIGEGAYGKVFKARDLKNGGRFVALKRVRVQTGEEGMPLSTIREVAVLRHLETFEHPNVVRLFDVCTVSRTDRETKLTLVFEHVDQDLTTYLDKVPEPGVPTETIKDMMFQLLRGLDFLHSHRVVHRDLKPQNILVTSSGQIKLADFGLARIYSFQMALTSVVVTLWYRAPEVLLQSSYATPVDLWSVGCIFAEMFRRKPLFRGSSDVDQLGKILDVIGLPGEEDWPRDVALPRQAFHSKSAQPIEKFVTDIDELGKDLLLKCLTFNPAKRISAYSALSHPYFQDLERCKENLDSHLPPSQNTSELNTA
T1 sequence (P24385 whole entry partner): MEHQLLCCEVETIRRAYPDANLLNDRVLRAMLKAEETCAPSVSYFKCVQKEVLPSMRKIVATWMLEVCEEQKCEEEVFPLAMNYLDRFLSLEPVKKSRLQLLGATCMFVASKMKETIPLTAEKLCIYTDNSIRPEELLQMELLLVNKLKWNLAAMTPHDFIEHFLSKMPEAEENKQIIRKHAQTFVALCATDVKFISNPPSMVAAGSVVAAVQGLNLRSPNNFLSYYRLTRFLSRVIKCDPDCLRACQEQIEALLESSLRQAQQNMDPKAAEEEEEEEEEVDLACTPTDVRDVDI

SMILES | IC50 [1] | IC50 [2]
Cc1ccc(-c2cc3cnc(Nc4ccc(N5CCNCC5)cn4)nn3c2C2=CCCC2)s1 [Example 83] | 100 to 1000 nM | 500 to 2500 nM
C1=C(c2c(-c3cncnc3)cc3cnc(Nc4ccc(N5CCNCC5)cn4)nn23)CCC1 [Example 84] | < 100 nM | < 500 nM
CCn1cc(-c2cc3cnc(Nc4ccc(N5CCNCC5)cn4)nn3c2C2=CCCC2)cn1 [Example 86] | < 100 nM | < 500 nM
CC(C)n1cc(-c2cc3cnc(Nc4ccc(N5CCNCC5)cn4)nn3c2C2=CCCC2)cn1 [Example 87] | 100 to 1000 nM | < 500 nM
Cc1cc(-c2cc3cnc(Nc4ccc(N5CCNCC5)cn4)nn3c2C2=CCCC2)ccn1 [Example 90] | < 100 nM | < 500 nM
COc1cc(F)ccc1-c1c(-c2c[nH]nc2C)cc2cnc(Nc3ccc(N4CCNCC4)cn3)nn12 [Example 91] | 100 to 1000 nM | 2500 to 10000 nM
Cn1cc(-c2cc3cnc(Nc4ccc(N5CC6(CCNC6)C5)cn4)nn3c2C2=CCCC2)cn1 [Example 92] | 100 to 1000 nM | 500 to 2500 nM
Cn1cc(-c2cc3cnc(Nc4ccc(N5CCC6(CCNCC6)CC5)cn4)nn3c2C2=CCCC2)cn1 [Example 93] | < 100 nM | < 500 nM
COc1cc(F)ccc1-c1c(-c2cn[nH]c2)cc2cnc(Nc3ccc(N4CCNCC4)cn3)nn12 [Example 94] | < 100 nM | < 500 nM
C1=C(c2c(-c3cncnc3)cc3cnc(Nc4ccc(N5CCC6(CCNCC6)CC5)cn4)nn23)CCC1 [Example 96] | < 100 nM | 500 to 2500 nM
C1=C(c2c(-c3ccncc3)cc3cnc(Nc4ccc(N5CCNCC5)cn4)nn23)CCC1 [Example 97] | < 100 nM | < 500 nM
CN1CCN(c2ccc(Nc3ncc4cc(-c5cncnc5)c(C5=CCCC5)n4n3)nc2)CC1 [Example 98] | < 100 nM | 500 to 2500 nM
CN1CCN(c2ccc(Nc3ncc4cc(C(=O)N(C)C)c(C5=CCCC5)n4n3)nc2)CC1 [Example 99] | < 100 nM | < 500 nM
[2H]C([2H])([2H])N1CCN(c2ccc(Nc3ncc4cc(C(=O)N(C)C)c(C5=CCCC5)n4n3)nc2)CC1 [Example 102] | < 100 nM | < 500 nM
CCN1CCN(c2ccc(Nc3ncc4cc(C(=O)N(C)C)c(C5=CCCC5)n4n3)nc2)CC1 [Example 103] | < 100 nM | < 500 nM
[2H]C([2H])([2H])N1CCN(c2ccc(Nc3ncc4cc(C(=O)N(C)C)c(C5=CCOCC5)n4n3)nc2)CC1 [Example 106] | < 100 nM | < 500 nM

Next, values leading:

IC50 [1] | IC50 [2] | SMILES
100 to 1000 nM | < 500 nM | Cn1cc(-c2cc3cnc(Nc4ccc(N5CCNCC5)cn4)nn3c2Br)cn1 [Example 82]
< 100 nM | < 500 nM | Cc1n[nH]cc1-c1cc2cnc(Nc3ccc(N4CCNCC4)cn3)nn2c1C1=CCCC1 [Example 85]
< 100 nM | < 500 nM | C1=C(c2c(-c3cccnc3)cc3cnc(Nc4ccc(N5CCNCC5)cn4)nn23)CCC1 [Example 88]
< 100 nM | < 500 nM | Cc1ccc(-c2cc3cnc(Nc4ccc(N5CCNCC5)cn4)nn3c2C2=CCCC2)cn1 [Example 89]
< 100 nM | < 500 nM | COc1ccc(-c2c(C(=O)N(C)C)cc3cnc(Nc4ccc(N5CCN(C)CC5)cn4)nn23)cc1 [Example 100]
< 100 nM | < 500 nM | [2H]C([2H])([2H])N1CCN(c2ccc(Nc3ncc4cc(C(=O)N(C)C)c(-c5ccc(OC)cc5)n4n3)nc2)CC1 [Example 101]
< 100 nM | < 500 nM | [2H]C([2H])([2H])C([2H])([2H])N1CCN(c2ccc(Nc3ncc4cc(C(=O)N(C)C)c(C5=CCCC5)n4n3)nc2)CC1 [Example 104]
< 100 nM | < 500 nM | CN1CCN(c2ccc(Nc3ncc4cc(C(=O)N(C)C)c(C5=CCOCC5)n4n3)nc2)CC1 [Example 105]
< 100 nM | < 500 nM | CN(C)C(=O)c1cc2cnc(Nc3ccc(N4CCNCC4)cn3)nn2c1C1=CCOCC1 [Example 107]
